Assay results taken from patent US20080160617A1, “AGENT FOR INDUCING EMBRYONIC STEM CELL TO ECTODERMAL CELL, METHOD FOR OBTAINING THE SAME, AND USE OF THE SAME” (KYOWA HAKKO KOGYO CO., LTD., priority 2001, published 2008).

Legend:
ES cell EB5 [1] = test: Nerve differentiation of ES cell EB5 by solution recovered from PA6 cell with polyanion-containing Hanks' balanced salt solution (SDIA activity); format: cell-based, mouse; details: 14 days
Protocol: ES cell EB5 (H. Niwa et al., Nature Genet., 24, 372 (2000); obtained from Dr. Hitoshi Niwa at the Molecular Control Medical Science Course, Medical School, Osaka University) was used as the embryonic stem cell, and an MC3T3-G2/PA6 cell (H. Kodama et al., J. Cell Physiol., 112) 89 (1982), hereinafter referred to as “PA6 cell”) as the stromal cell, and the ES cell EB5 was cultured in accordance with the method described in Reference Example 1 and used in the test.
Cells of PA6 cultured to almost confluent state on a dish of 10 cm in diameter were washed twice with 10 ml of PBS(−) (manufactured by Invitrogen) and once with 10 ml of Hanks' balanced salt solution (manufactured by Invitrogen), 3 ml of Hanks' balanced salt solution containing from 0.001% (w/v) to 0.1% (w/v) of heparin (manufactured by Nacalai Tesque) was added thereto, the mixture was allowed to stand at 37° C. for 30 minutes, and the solution was recovered. The solution obtained was added to the PA6 on the 10 cm, dish washed in the same manner described above, the mixture was allowed to stand at 37° C. for 30 minutes in the same manner, and then the solution was recovered. This process was carried out on PA6 on the other 10 cm dish, and effect of the recovered solution ES cell was examined. In this case, a solution recovered in the same manner by using a heparin-free Hanks' balanced salt solution was used as a negative control.
The solution obtained in the above was mixed at a ratio of 1:2 with a solution containing the ES cell EB5 which had been adjusted to a single cell state in a serum-free medium by the method described in Reference Example 1, and the mixture was inoculated into a gelatin-coated plastic culture dish at a cell density of 1,250 cells/cm^2 and incubated at 37° C. for 14 days in a CO2 incubator in an atmosphere of 5% carbon dioxide.
The cells after the culturing were fixed by 4% paraformaldehyde solution and subjected to immune staining in accordance with the method described in Using Antibodies, Cold Spring Harbor Laboratory Press (1999), using an anti-NCAM antibody (manufactured by Chemicon) as a general nerve marker, an anti-class III β-tubulin antibody (manufactured by Babco) as a nerve-specific marker and an anti-nestin antibody (manufactured by Pharmingen) as a nerve precursor cell-specific marker.
Compounds other than heparin with which the SDIA activity factor can be recovered were searched by the method for recovering an SDIA activity factor described in Example 1. Using a Hanks' balanced salt solution containing, instead of heparin, 0.001% (w/v) dextran sulfate (manufactured by Sigma), 0.001% (w/v) polyvinyl sulfate (manufactured by Sigma), 0.001% (w/v) polystyrene sulfonate (manufactured by Tosoh) 0.1% (w/v) carboxymethylcellulose (manufactured by, Wako Pure Chemical Industries) or 0.1% (w/v) hyaluronic acid (manufactured by Kibun Chemical Foods), respective solutions were recovered by the method described in Example 1 to examine their effects on the ES cell. In this case, a solution recovered in the same manner by using a heparin-free Hanks' balanced salt solution was used as a negative control.

embryonic stem cell = details: cited from earlier work
ES cell EB5 [2] = test: Heparin treatment of PA6 feeder cell before paraformaldehyde fixation, nerve differentiation of ES cell EB5; format: cell-based, mouse; details: PA6 cell cultured 2 days in medium containing 200 ng/ml heparin, then paraformaldehyde-fixed; 8 days coculture
Protocol: According to the method described in Reference Example 3, the ES cell EB5 was cultured for 8 days in the serum-free medium without BMP4 by using the paraformaldehyde-fixed PA6 cell as a feeder cell. Also, the case when the PA6 cell was cultured in a medium containing heparin (GIBCO BRL) (hereinafter referred to as “heparin treatment”) was compared with the case when culturing in a heparin-free medium. That is, dishes in which the PA6 cell proliferated to almost confluent on a 3 cm tissue culture dish was cultured for 2 days in a medium containing 200 ng/ml of heparin and dishes in which it was cultured for 2 days in a heparin-free medium were prepared, washed twice with PBS(−) and subjected to paraformaldehyde fixation, and the ES cell EB5 was inoculated onto the paraformaldehyde-fixed PA6 cell at a density of 200 cells/dish, the medium was exchanged with a fresh medium on the 4th, 6th and 7th days, and then the cells were cultured at 37° C. for 8 days in a stream of 5% carbon dioxide in a CO2 incubator.
Eight days after coculturing, the cells were fixed according to the method described in Reference Example 1, and the colonies formed as a result of the coculturing of the ES cell EB5 with PA6 cell were immunologically stained with the anti-NCAM antibody, anti-tubulin antibody and anti-nestin antibody.

[3] = solution recovered from PA6 cell with Hanks' solution containing 0.1% (w/v) polyanion instead of heparin
[4] = solution recovered from PA6 cell with Hanks' solution containing 0.001% (w/v) polyanion instead of heparin

carboxymethylcellulose
ratio of colonies expressing class III β-tubulin (ES cell EB5 [1]; [3]): 34.6%

LIF: leukemia inhibitory factor
SDIA-like activity to induce differentiation of embryonic stem cell into ectoderm system cells (embryonic stem cell): no SDIA-like activity

EGF: epidermal growth factor
SDIA-like activity to induce differentiation of embryonic stem cell into ectoderm system cells (embryonic stem cell): no SDIA-like activity

heparin
ratio of colonies expressing class III β-tubulin (ES cell EB5 [1]; solution recovered from PA6 cell with Hanks' balanced salt solution containing 0.001% (w/v) heparin, mixed 1:2 with ES cell EB5): 68%
differentiation of ES cell into nerve cell on heparin-treated PA6 feeder cell (ES cell EB5 [2]): significant differentiation of ES cell into nerve cell was not observed

PDGF
SDIA-like activity to induce differentiation of embryonic stem cell into ectoderm system cells (embryonic stem cell): no SDIA-like activity

HGF: hepatocyte growth factor
SDIA-like activity to induce differentiation of embryonic stem cell into ectoderm system cells (embryonic stem cell): no SDIA-like activity

hyaluronic acid
ratio of colonies expressing class III β-tubulin (ES cell EB5 [1]; [3]): 19.8%

dextran sulfate
ratio of colonies expressing class III β-tubulin (ES cell EB5 [1]; [4]): 67.2%

polystyrene sulfonate
ratio of colonies expressing class III β-tubulin (ES cell EB5 [1]; [4]): 48.7%

bFGF: basic fibroblast growth factor
SDIA-like activity to induce differentiation of embryonic stem cell into ectoderm system cells (embryonic stem cell): no SDIA-like activity

polyvinyl sulfate
ratio of colonies expressing class III β-tubulin (ES cell EB5 [1]; [4]): 54.8%
